The results in this text go back to patent US12060351B2, “Thiadiazole IRAK4 inhibitors” (Gilead Sciences, Inc., priority 2018, dated 2024).

One test relates to TNFα. In words: IRAK4 Monocyte TNFα Cell Based Assay (LPS-stimulated, TR-FRET TNFα detection). Details: species or system human. The following applies: Homo sapiens, Monocyte, read-out: EC50 MONO TNF HTRF. An outline of the steps:
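Monocytes (5,000 cells/well) treated with compound (0.1% DMSO) for 1 hour at 37° C, then stimulated with 50 pg/ml LPS for 4 hours. TNFα in medium quantified by TR-FRET two-antibody detection after overnight room-temperature incubation. Percent of control calculated against unstimulated (0%) and LPS-stimulated (100%) cells.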
A general note: Time-resolved FRET reads energy transfer from a long-lived donor to a nearby acceptor.

A further test concerns the target T1, IRAK4 enzyme (Homo sapiens, UniProt Q9NWZ3).
T1 construct: purchased Carna Biosciences, Chuo-ku, Kobe, Japan
T1 sequence (Q9NWZ3 1-460): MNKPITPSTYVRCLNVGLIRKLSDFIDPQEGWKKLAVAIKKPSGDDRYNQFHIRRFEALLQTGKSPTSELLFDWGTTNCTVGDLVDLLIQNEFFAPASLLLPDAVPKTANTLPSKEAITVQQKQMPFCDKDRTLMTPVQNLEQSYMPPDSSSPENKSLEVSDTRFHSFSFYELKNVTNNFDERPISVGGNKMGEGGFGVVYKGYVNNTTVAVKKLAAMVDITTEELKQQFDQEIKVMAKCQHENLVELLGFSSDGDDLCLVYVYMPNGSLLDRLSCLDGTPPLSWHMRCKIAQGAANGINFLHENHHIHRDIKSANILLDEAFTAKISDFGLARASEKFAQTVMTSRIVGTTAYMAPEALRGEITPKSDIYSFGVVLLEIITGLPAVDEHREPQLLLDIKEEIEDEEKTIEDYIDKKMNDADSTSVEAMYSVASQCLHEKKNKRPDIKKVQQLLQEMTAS
In words: IRAK4 Biochemical Assay (TR-FRET, STK1 KinEASE). Conditions: 500 μM ATP, Table 2 second part (compounds 33-343), read-out: IC50 IRAK4-HTBS. An outline of the steps: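 Human IRAK4 (0.75 nM) preincubated 15 min with compound and 2 μM STK1 peptide, then reacted 120 min at room temperature with 500 μM ATP in HEPES pH 7.0 buffer with MgCl2 and DTT. EDTA stop with Cryptate anti-phosphopeptide antibody and tracer, 60 min; TR-FRET read as 665/615 nm ratio.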

The mark [1] stands for this setting: human monocytes, LPS-stimulated, Table 2 second part (compounds 33-343).

For orientation: EC50 means the concentration that produces a half-maximal response. Broadly, the IC50 is the concentration that inhibits the measured activity by half.

Read-outs that look alike come from different tables or passages of the source.

Take `N#Cc1cnn2c(-c3cc(NC4CCOCC4)c(-c4nnc([C@H]5CC[C@H](NC(=O)C6CC6)CC5)s4)cn3)ccc2c1` [Example 156, N-((1r,4r)-4-(5-(6-(3-cyanopyrrolo[1,2-b]pyridazin-7-yl)-4-((tetrahydro-2H-pyran-4-yl)amino)pyridin-3-yl)-1,3,4-thiadiazol-2-yl)cyclohexyl)cyclopropanecarboxamide]: the EC50 in the test on TNFα (setting [1]) was 10.9 nM. Besides, the IC50 on IRAK4 enzyme is 1.42 nM.

As for `CC(=O)N[C@]1(C)[C@@H]2CC[C@H]1CN(c1nnc(-c3cnc(-c4ccc5cc(C#N)cnn45)cc3N[C@H](C)C#N)s1)C2` [Example 157, N-((1R,5S,8S)-3-(5-(4-(((R)-1-cyanoethyl)amino)-6-(3-cyanopyrrolo[1,2-b]pyridazin-7-yl)pyridin-3-yl)-1,3,4-thiadiazol-2-yl)-8-methyl-3-azabicyclo[3.2.1]octan-8-yl)acetamide], the concentration giving a half-maximal response (EC50) in the test with TNFα (setting [1]) was determined as 1.8 nM. The IC50 on IRAK4 enzyme was found to be 1.03 nM.

Turning to `CC1(Nc2cc(-c3ccc4cc(C#N)cnn34)ncc2-c2nnc([C@H]3CC[C@H](NC(=O)C4CC4)CC3)s2)COC1` [Example 158, N-((1r,4r)-4-(5-(6-(3-cyanopyrrolo[1,2-b]pyridazin-7-yl)-4-((3-methyloxetan-3-yl)amino)pyridin-3-yl)-1,3,4-thiadiazol-2-yl)cyclohexyl)cyclopropanecarboxamide], the EC50 in the test on TNFα (setting [1]) was found to be 19.8 nM. In addition, the IC50 at IRAK4 enzyme was determined as 1.15 nM.

With `C[C@H](C#N)Nc1cc(-c2ccc3cc(C#N)cnn23)ncc1-c1nnc([C@H]2CC[C@H](NC(=O)C3CC3)CC2)s1` [Example 160, N-((1R,4r)-4-(5-(4-(((R)-1-cyanoethyl)amino)-6-(3-cyanopyrrolo[1,2-b]pyridazin-7-yl)pyridin-3-yl)-1,3,4-thiadiazol-2-yl)cyclohexyl)cyclopropanecarboxamide], the EC50 with TNFα (setting [1]) is 2.8 nM. On IRAK4 enzyme, the IC50 stood at 0.52 nM.

`CC(=O)N[C@H]1[C@@H]2CCC[C@H]1CN(c1nnc(-c3cnc(-c4ccc5cc(C#N)cnn45)cc3NC(C)C)s1)C2` [Example 165, N-((1R,5S,9r)-3-(5-(6-(3-cyanopyrrolo[1,2-b]pyridazin-7-yl)-4-(isopropylamino)pyridin-3-yl)-1,3,4-thiadiazol-2-yl)-3-lazabicyclo[3.3.1]nonan-9-yl)acetamide]: in the test on TNFα (setting [1]), the EC50 was found to be 39.1 nM. Besides, the IC50 on IRAK4 enzyme came out at 1.15 nM.

As to `CC(=O)N[C@@H]1[C@@H]2CCC[C@H]1CN(c1nnc(-c3cnc(-c4ccc5cc(C#N)cnn45)cc3NC(C)C)s1)C2` [Example 166, N-((1R,5S,9s)-3-(5-(6-(3-cyanopyrrolo[1,2-b]pyridazin-7-yl)-4-(isopropylamino)pyridin-3-yl)-1,3,4-thiadiazol-2-yl)-3-azabicyclo[3.3.1]nonan-9-yl)acetamide], in the test with TNFα (setting [1]), the EC50 is 2.3 nM. In addition, the IC50 at IRAK4 enzyme stood at 0.66 nM.

Regarding `CC(=O)N[C@@H]1[C@@H]2CC[C@H]1CN(c1nnc(-c3cnc(-c4ccc5cc(C#N)cnn45)cc3NC3CCOCC3)s1)C2` [Example 171, N-((1R,5S,8s)-3-(5-(6-(3-cyanopyrrolo[1,2-b]pyridazin-7-yl)-4-((tetrahydro-2H-pyran-4-yl)amino)pyridin-3-yl)-1,3,4-thiadiazol-2-yl)-3-azabicyclo[3.2.1]octan-8-yl)acetamide], in the test on TNFα (setting [1]), the EC50 is 2.1 nM. Further, on IRAK4 enzyme, the IC50 was found to be 0.46 nM.

Take `CC(=O)N[C@@H]1[C@@H]2C[C@H]1CN(c1nnc(-c3cnc(-c4ccc5cc(C#N)cnn45)cc3NC(C)C)s1)C2` [Example 173, N-((1R,5S,6s)-3-(5-(6-(3-cyanopyrrolo[1,2-b]pyridazin-7-yl)-4-(isopropylamino)pyridin-3-yl)-1,3,4-thiadiazol-2-yl)-3-azabicyclo[3.1.1]heptan-6-yl)acetamide]: the EC50 in the test with TNFα is 11.6 nM. Besides, the IC50 on IRAK4 enzyme was found to be 1.52 nM.
